Read-outs that look alike come from different tables or passages of the source.
System: panel of 55 breast cancer cell lines
Assay: Cell growth inhibition assay (Cell Titer Glo, 72 h, 9 doses; GI50, TGI, LC50)
Format: cell-based, human
[1] = AU565 cell line, censored GI50 values, value is the negative log10 of mol/L
[2] = BT474 cell line, censored GI50 values, value is the negative log10 of mol/L
[3] = CAMA1 cell line, censored GI50 values, value is the negative log10 of mol/L
[4] = HCC1143 cell line, censored GI50 values, value is the negative log10 of mol/L
[5] = HCC1187 cell line, censored GI50 values, value is the negative log10 of mol/L
[6] = HCC1395 cell line, censored GI50 values, value is the negative log10 of mol/L
[7] = HCC1419 cell line, censored GI50 values, value is the negative log10 of mol/L
[8] = HCC1428 cell line, censored GI50 values, value is the negative log10 of mol/L
[9] = HCC1500 cell line, censored GI50 values, value is the negative log10 of mol/L
[10] = cell line AU565, value is the negative log10 of mol/L
[11] = cell line BT20, value is the negative log10 of mol/L
[12] = cell line BT474, value is the negative log10 of mol/L
[13] = cell line BT483, value is the negative log10 of mol/L
[14] = cell line CAMA1, value is the negative log10 of mol/L
[15] = cell line HCC38, value is the negative log10 of mol/L
[16] = cell line HCC70, value is the negative log10 of mol/L
[17] = cell line HCC1143, value is the negative log10 of mol/L
[18] = cell line HCC1187, value is the negative log10 of mol/L
[19] = cell line HCC1395, value is the negative log10 of mol/L
[20] = cell line HCC1419, value is the negative log10 of mol/L
[21] = cell line HCC1428, value is the negative log10 of mol/L
[22] = cell line HCC1500, value is the negative log10 of mol/L
[23] = cell line HCC1937, value is the negative log10 of mol/L
[24] = cell line HCC1954, value is the negative log10 of mol/L
[25] = cell line HCC2185, value is the negative log10 of mol/L
[26] = cell line HCC3153, value is the negative log10 of mol/L
[27] = cell line LY2, value is the negative log10 of mol/L
[28] = cell line MCF7, value is the negative log10 of mol/L
[29] = cell line MDAMB134V, value is the negative log10 of mol/L
[30] = cell line MDAMB175V, value is the negative log10 of mol/L
[31] = cell line MDAMB361, value is the negative log10 of mol/L
[32] = cell line MDAMB415, value is the negative log10 of mol/L
[33] = cell line MDAMB453, value is the negative log10 of mol/L
[34] = cell line MDAMB468, value is the negative log10 of mol/L
[35] = cell line SKBR3, value is the negative log10 of mol/L
[36] = cell line SUM52PE, value is the negative log10 of mol/L
[37] = cell line SUM149PT, value is the negative log10 of mol/L
[38] = cell line SUM159PT, value is the negative log10 of mol/L
[39] = cell line SUM185PE, value is the negative log10 of mol/L
[40] = cell line SUM225CWN, value is the negative log10 of mol/L
[41] = cell line SUM1315MO, value is the negative log10 of mol/L
[42] = cell line T47D, value is the negative log10 of mol/L
[43] = cell line UACC812, value is the negative log10 of mol/L
[44] = cell line ZR75B, value is the negative log10 of mol/L
[45] = cell line ZR751, value is the negative log10 of mol/L

## CN(Cc1cnc2nc(N)nc(N)c2n1)c1ccc(C(=O)N[C@@H](CCC(=O)O)C(=O)O)cc1 [Methotrexate]
Homo sapiens, 600MPE cell line, censored GI50 values, read-out: GI50 (converted)
  GI50: 166 µM
Homo sapiens, AU565, AU565 cell line, censored GI50 values, read-out: GI50 (converted)
  GI50: 166 µM
Homo sapiens, AU565, cell line AU565, read-out: GI50 (converted)
  GI50: 166 µM
Homo sapiens, BT-20, cell line BT20, read-out: GI50 (converted)
  GI50: 331 µM
Homo sapiens, BT-474, cell line BT474, read-out: GI50 (converted)
  GI50: 331 µM
Homo sapiens, BT-549, cell line BT549, read-out: GI50 (converted)
  GI50: 331 µM
Homo sapiens, CAMA-1, CAMA1 cell line, censored GI50 values, read-out: GI50 (converted)
  GI50: 0.0794 µM
Homo sapiens, CAMA-1, cell line CAMA1, read-out: GI50 (converted)
  GI50: 0.0794 µM
Homo sapiens, HCC38, cell line HCC38, read-out: GI50 (converted)
  GI50: 331 µM
Homo sapiens, HCC202, cell line HCC202, read-out: GI50 (converted)
  GI50: 0.0204 µM
Homo sapiens, HCC1143, HCC1143 cell line, censored GI50 values, read-out: GI50 (converted)
  GI50: 0.024 µM
Homo sapiens, HCC1143, cell line HCC1143, read-out: GI50 (converted)
  GI50: 0.024 µM
Homo sapiens, HCC1187, HCC1187 cell line, censored GI50 values, read-out: GI50 (converted)
  GI50: 166 µM
Homo sapiens, HCC1187, cell line HCC1187, read-out: GI50 (converted)
  GI50: 166 µM
Homo sapiens, HCC1395, cell line HCC1395, read-out: GI50 (converted)
  GI50: 331 µM
Homo sapiens, HCC1419, HCC1419 cell line, censored GI50 values, read-out: GI50 (converted)
  GI50: 166 µM
Homo sapiens, HCC1419, cell line HCC1419, read-out: GI50 (converted)
  GI50: 166 µM
Homo sapiens, HCC1428, cell line HCC1428, read-out: GI50 (converted)
  GI50: 331 µM
Homo sapiens, HCC1500, HCC1500 cell line, censored GI50 values, read-out: GI50 (converted)
  GI50: 0.0309 µM
Homo sapiens, HCC1500, cell line HCC1500, read-out: GI50 (converted)
  GI50: 0.0309 µM
Homo sapiens, HCC1806, HCC1806 cell line, censored GI50 values, read-out: GI50 (converted)
  GI50: 166 µM
Homo sapiens, HCC1806, cell line HCC1806, read-out: GI50 (converted)
  GI50: 166 µM
Homo sapiens, HCC1937, cell line HCC1937, read-out: GI50 (converted)
  GI50: 331 µM
Homo sapiens, HCC1954, HCC1954 cell line, censored GI50 values, read-out: GI50 (converted)
  GI50: 0.0155 µM
Homo sapiens, HCC1954, cell line HCC1954, read-out: GI50 (converted)
  GI50: 0.0155 µM
Homo sapiens, MCF7, cell line MCF7, read-out: GI50 (converted)
  GI50: 0.0575 µM
Homo sapiens, MDA-MB-157, cell line MDAMB157, read-out: GI50 (converted)
  GI50: 166 µM
Homo sapiens, MDA-MB-231, cell line MDAMB231, read-out: GI50 (converted)
  GI50: 331 µM
Homo sapiens, MDA-MB-361, cell line MDAMB361, read-out: GI50 (converted)
  GI50: 0.158 µM
Homo sapiens, MDA-MB-415, cell line MDAMB415, read-out: GI50 (converted)
  GI50: 331 µM
Homo sapiens, MDA-MB-436, cell line MDAMB436, read-out: GI50 (converted)
  GI50: 0.02 µM
Homo sapiens, MDA-MB-453, cell line MDAMB453, read-out: GI50 (converted)
  GI50: 331 µM
Homo sapiens, MDA-MB-468, cell line MDAMB468, read-out: GI50 (converted)
  GI50: 0.0324 µM
Homo sapiens, SK-BR-3, cell line SKBR3, read-out: GI50 (converted)
  GI50: 0.692 µM
Homo sapiens, SUM52PE, cell line SUM52PE, read-out: GI50 (converted)
  GI50: 331 µM
Homo sapiens, SUM149PT, cell line SUM149PT, read-out: GI50 (converted)
  GI50: 331 µM
Homo sapiens, SUM185PE, cell line SUM185PE, read-out: GI50 (converted)
  GI50: 331 µM
Homo sapiens, SUM225CWN, cell line SUM225CWN, read-out: GI50 (converted)
  GI50: 331 µM
Homo sapiens, SUM-159-PT, cell line SUM159PT, read-out: GI50 (converted)
  GI50: 331 µM
Homo sapiens, ZR-75-1, cell line ZR751, read-out: GI50 (converted)
  GI50: 0.0661 µM
Homo sapiens, ZR-75B, cell line ZR75B, read-out: GI50 (converted)
  GI50: 331 µM
Homo sapiens, cell line 600MPE, read-out: GI50 (converted)
  GI50: 166 µM
Homo sapiens, cell line HCC2185, read-out: GI50 (converted)
  GI50: 331 µM
Homo sapiens, cell line LY2, read-out: GI50 (converted)
  GI50: 0.0339 µM
Homo sapiens, cell line MDAMB134V, read-out: GI50 (converted)
  GI50: 331 µM
Homo sapiens, cell line SUM1315MO, read-out: GI50 (converted)
  GI50: 331 µM

## O=C1C(Cl)=C(NCCN2CCOCC2)C(=O)c2ncccc21 [NSC 663284]
600MPE cell line, censored GI50 values, value is the negative log10 of mol/L
  GI50: 5.34
[1]
  GI50: 5.81
BT20 cell line, censored GI50 values, value is the negative log10 of mol/L
  GI50: 5.48
[2]
  GI50: 5.56
BT483 cell line, censored GI50 values, value is the negative log10 of mol/L
  GI50: 6.02
[3]
  GI50: 5.58
[4]
  GI50: 5.70
[5]
  GI50: 5.68
[6]
  GI50: 6.16
[7]
  GI50: 5.72
[8]
  GI50: 5.59
[9]
  GI50: 5.42
HCC1937 cell line, censored GI50 values, value is the negative log10 of mol/L
  GI50: 6.07
HCC1954 cell line, censored GI50 values, value is the negative log10 of mol/L
  GI50: 5.22
Cell line 600MPE, value is the negative log10 of mol/L
  GI50: 5.34
[10]
  GI50: 5.81
[11]
  GI50: 5.48
[12]
  GI50: 5.56
[13]
  GI50: 6.02
[14]
  GI50: 5.58
[15]
  GI50: 5.64
[16]
  GI50: 5.51
[17]
  GI50: 5.70
[18]
  GI50: 5.68
[19]
  GI50: 6.16
[20]
  GI50: 5.72
[21]
  GI50: 5.59
[22]
  GI50: 5.42
[23]
  GI50: 6.07
[24]
  GI50: 5.22
[25]
  GI50: 5.96
[26]
  GI50: 5.73
[27]
  GI50: 6.27
[28]
  GI50: 5.43
[29]
  GI50: 5.24
[30]
  GI50: 5.22
[31]
  GI50: 5.14
[32]
  GI50: 5.59
[33]
  GI50: 5.26
[34]
  GI50: 5.19
[35]
  GI50: 5.86
[36]
  GI50: 5.61
[37]
  GI50: 5.74
[38]
  GI50: 5.64
[39]
  GI50: 6.50
[40]
  GI50: 5.66
[41]
  GI50: 6.00
[42]
  GI50: 5.19
[43]
  GI50: 5.43
[44]
  GI50: 5.26
[45]
  GI50: 5.73

## NS(=O)(=O)c1ccc(Nc2nc(OCC3CCCCC3)c3[nH]cnc3n2)cc1 [NU6102]
[1]
  GI50: 4.64
[2]
  GI50: 4.56
[3]
  GI50: 4.91
[4]
  GI50: 4.87
[5]
  GI50: 5.11
[6]
  GI50: 5.24
[7]
  GI50: 4.54
[8]
  GI50: 4.87
[9]
  GI50: 4.78
HCC1806 cell line, censored GI50 values, value is the negative log10 of mol/L
  GI50: 4.64
[10]
  GI50: 4.64
[11]
  GI50: 4.23
[12]
  GI50: 4.56
[13]
  GI50: 4.18
[14]
  GI50: 4.91
[15]
  GI50: 5.03
[16]
  GI50: 4.69
[17]
  GI50: 4.87
[18]
  GI50: 5.11
[19]
  GI50: 5.24
[20]
  GI50: 4.54
[21]
  GI50: 4.87
[22]
  GI50: 4.78
Cell line HCC1806, value is the negative log10 of mol/L
  GI50: 4.64
[23]
  GI50: 4.27
[24]
  GI50: 4.34
[25]
  GI50: 4.85
[26]
  GI50: 4.81
[27]
  GI50: 4.32
[28]
  GI50: 4.39
[29]
  GI50: 4.34
[30]
  GI50: 4.26
[31]
  GI50: 4.77
[32]
  GI50: 4.46
Cell line MDAMB436, value is the negative log10 of mol/L
  GI50: 4.28
[33]
  GI50: 4.91
[34]
  GI50: 4.85
[35]
  GI50: 4.51
[36]
  GI50: 5.27
[37]
  GI50: 5.08
[38]
  GI50: 4.90
[39]
  GI50: 5.53
[40]
  GI50: 4.30
[41]
  GI50: 5.40
[42]
  GI50: 4.82
[43]
  GI50: 4.42
[44]
  GI50: 4.85
[45]
  GI50: 4.76

Source: patent US10770169B2, “Method of providing a treatment to a subject based on a dynamic pathway map” (THE REGENTS OF THE UNIVERSITY OF CALIFORNIA, priority 2010, dated 2020)
